These results are taken from patent US20080241919A1, “Defined media for pluripotent stem cell culture” (The Burnham Institute of Medical Research, priority 2003, published 2008).

Test [1] concerns human embryonic stem cells (hESCs). Put plainly: Short-term proliferation assay (growth rate) of hESCs in defined hESC media. Format: cell-based. As to conditions: feeder-free. How it is done: (b) Short-term proliferation assays—assessing cell number. The growth rate of hESCs maintained under the feeder-free condition in the defined hESC media containing 0, 4, 10, 20, 30, or 50 ng/ml bFGF were determined and compared to that of hESCs maintained on laminin/collagen-coated plates in the MEF-conditioned media (MEF-CM) containing 10 ng/ml bFGF (see, for example, Xu, C., et al., Nat. Biotechnol. 19, 971-974 (2001)).
To further assess the effect of bFGF on hESC undifferentiated growth, short-term proliferation assays of hESCs maintained under the feeder-free condition in the defined hESC media containing 0, 4, 10, 20, 30, or 50 ng/ml bFGF were performed. The growth rate (FIG. 1b) and the percentage of undifferentiated colonies (FIG. 1c) in response to bFGF doses were compared to those of hESCs maintained in MEF-conditioned media (MEF-CM) (the latter also actually “spiked” with an additional 10 ng/ml bFGF). […] To further affirm the role of bFGF on hESC undifferentiated growth, hESCs carrying a reporter gene (enhanced green fluorescence protein [EGFP]) under control of Oct-4 promoter were generated (via lentiviral-mediated transduction).

The subject of test [2] is Oct-4 expression in hESCs. Nature of the test: hESCs carrying Oct-4 promoter-driven EGFP reporter, with or without bFGF. Format: cell-based, human. The text has this:
(d) bFGF is critical for sustaining undifferentiated growth of hESCs carrying an Oct-4-driven reporter gene. hESCs carrying a reporter gene (enhanced green fluorescence protein [EGFP]) that is under control of the Oct-4 promoter was generated via lentiviral-mediated transduction.
FIG. 6: (a) Growth of hESCs carrying an Oct-4-driven reporter gene in the presence or absence of bFGF. hESCs carrying a reporter gene (enhanced green fluorescence protein [EGFP]) that is under control of the Oct-4 promoter was generated via lentiviral-mediated transduction. Transfected hESCs were cultivated under the feeder-free conditions in the defined media with bFGF (20 ng/ml) or without bFGF for 4 days. […] The cells were further dissociated and analyzed on a BD FacsSort instrument after staining with 7-aminoactinomycin D (7-AAD) to eliminate the dead cells [E]. With FACS-sorting, significant increases (200%) of Oct4-EGFP negative cells were observed after withdrawal bFGF for 4 days. (Note the actual percentage of Oct4-EGFP negative cells in the absence of bFGF should be even higher, because it takes around 2 days for the green fluorescence to be completely quenched after Oct-4 expression has been turned off.) (b) bFGF concentration in MEF-CM. Growth-arrested MEFs were obtained from Specialty Media (Phillipsburg, N.J.). […] 50 μl of concentrates was loaded onto a SDS/PAGE gel and analyzed by Western blot. […]
To discover the minimal essential conditions needed to support the long-term growth of undifferentiated hESCs, morphological analysis was used to assess the developmental stage of hESCs at different times. […] The state of differentiation of hESC was further assessed by generating (via lentiviral-mediated transduction) hESCs carrying a reporter gene (enhanced green fluorescence protein (EGFP)) under control of the Oct-4 promoter. Using these transfected hESCs (carrying Oct-4 driven EGFP), the undifferentiated state of hESCs can be visualized by green fluorescence (indicating Oct-4 expression). […]

The next test concerns p38 MAPK. Put plainly: p38 MAPK phosphorylation in hESCs (Western blot, immunocytochemistry). Format: cell-based, human. The source says: (e) bFGF is essential for maintaining hESCs in a healthy undifferentiated state, in part through MAPK signaling […]. In media lacking bFGF, hESC colonies maintained on Matrigel-coated plates have a completely differentiated morphology upon the first passage [A]. To examine the signaling pathways that might be mediated by bFGF, the phosphorylation level of p38 MAPK in undifferentiated (in the presence of bFGF [+bFGF]) and differentiated (in the absence of bFGF [−bFGF]) hESCs was examined. […] White arrows delineate the edge of an hESC colony.
To help understand the molecular mechanisms underlying bFGF's role in maintaining undifferentiated growth of hESCs, the mitogen-activated protein kinase (MAPK) signaling pathway was examined.
On the technique in general: A western blot detects proteins with antibodies after separation by electrophoresis.

Consider “bFGF: basic fibroblast growth factor, growth factor added to the defined hESC media”, for which, in test [1] (bFGF 10 to 50 ng/ml, compared with MEF-CM), the “growth rate of hESCs” value is “growth rate comparable to that maintained in MEF-CM”. Further, the “growth of hESCs” value in test [1] (low concentration of bFGF (4 ng/ml), defined media) is reported as “significantly slow growth”. In addition, the “cells inside colonies with differentiated morphology that ceased Oct-4 expression” value in test [2] (absence of bFGF, first passage (day 7 after seeding)) is listed as “more than 70%”. For the same substance, in test [2] (defined media containing 20 ng/ml bFGF, feeder-free), the “morphology and Oct-4-driven EGFP fluorescence of hESC colonies” value is “undifferentiated morphology and strong green fluorescence”. Besides, in test [2] (withdrawal of bFGF for 4 days), the “increase of Oct4-EGFP negative cells by FACS” value amounted to 200%. Besides, the “large differentiated cells displaying high levels of p38 phosphorylation” value in the test on p38 MAPK (absence of bFGF) was “about 5%”. Besides, the “p38 MAPK form in undifferentiated hESCs by immunocytochemistry” value in the test on p38 MAPK (defined media containing 20 ng/ml bFGF) was “unphosphorylated inactive form of p38 MAPK was present robustly”. In the test on p38 MAPK (increased bFGF concentrations), the “phosphorylation levels of p38 MAPK by Western blot” value is on record as “no changes”.
